Experimental data reported in publication PMC7844219, “Antifibrotic effect of novel neutrophil gelatinase-associated lipocalin inhibitors in cardiac and renal disease models” (Scientific Reports, 2021).
One block for each compound: values may come before it.

Key:
Aqueous solubility = assay type: physicochemical
Protocol: (§1) Several parameters have been evaluated to determine ADME-Tox profile of the compounds. Two specific toxicity assays have been performed to assess hepatoxicity and cardiotoxicity. Hepatotoxicity was evaluated in isolated hepatocytes from swiss mice and determined by the thiazolyl blue tetrazolium bromide colorimetric assay (sigma, St Louis, MO, USA). Cardiotoxicity was evaluated using the commercially available Predictor hERG fluorescence polarization kit (Thermo Fisher Scientific, Illinois, USA). Several absorption, distribution, metabolism, and excretion (ADME) assays have been carried out. The following experiments were undertaken: stability in human microsomes, binding to human plasma protein, and CYP3A4 inhibition assay (Vivid CYP3A4 assay, Thermo Fisher Scientific, Illinois, USA). Physico-chemical properties were also assessed such as aqueous solubility and chemical stability.

[1] = test system: isolated hepatocytes from swiss mice; assay: Hepatotoxicity, thiazolyl blue tetrazolium bromide (MTT) colorimetric assay; assay type: cell-based, mouse
Protocol: as §1

human plasma protein = assay: Binding to human plasma protein; assay type: in vitro ADME
Protocol: as §1

hERG channel = target: T1, hERG channel (Homo sapiens, UniProt Q12809); assay: Cardiotoxicity, Predictor hERG fluorescence polarization kit; assay type: binding
T1 construct: purchased Thermo Fisher Scientific
T1 sequence (Q12809 whole entry): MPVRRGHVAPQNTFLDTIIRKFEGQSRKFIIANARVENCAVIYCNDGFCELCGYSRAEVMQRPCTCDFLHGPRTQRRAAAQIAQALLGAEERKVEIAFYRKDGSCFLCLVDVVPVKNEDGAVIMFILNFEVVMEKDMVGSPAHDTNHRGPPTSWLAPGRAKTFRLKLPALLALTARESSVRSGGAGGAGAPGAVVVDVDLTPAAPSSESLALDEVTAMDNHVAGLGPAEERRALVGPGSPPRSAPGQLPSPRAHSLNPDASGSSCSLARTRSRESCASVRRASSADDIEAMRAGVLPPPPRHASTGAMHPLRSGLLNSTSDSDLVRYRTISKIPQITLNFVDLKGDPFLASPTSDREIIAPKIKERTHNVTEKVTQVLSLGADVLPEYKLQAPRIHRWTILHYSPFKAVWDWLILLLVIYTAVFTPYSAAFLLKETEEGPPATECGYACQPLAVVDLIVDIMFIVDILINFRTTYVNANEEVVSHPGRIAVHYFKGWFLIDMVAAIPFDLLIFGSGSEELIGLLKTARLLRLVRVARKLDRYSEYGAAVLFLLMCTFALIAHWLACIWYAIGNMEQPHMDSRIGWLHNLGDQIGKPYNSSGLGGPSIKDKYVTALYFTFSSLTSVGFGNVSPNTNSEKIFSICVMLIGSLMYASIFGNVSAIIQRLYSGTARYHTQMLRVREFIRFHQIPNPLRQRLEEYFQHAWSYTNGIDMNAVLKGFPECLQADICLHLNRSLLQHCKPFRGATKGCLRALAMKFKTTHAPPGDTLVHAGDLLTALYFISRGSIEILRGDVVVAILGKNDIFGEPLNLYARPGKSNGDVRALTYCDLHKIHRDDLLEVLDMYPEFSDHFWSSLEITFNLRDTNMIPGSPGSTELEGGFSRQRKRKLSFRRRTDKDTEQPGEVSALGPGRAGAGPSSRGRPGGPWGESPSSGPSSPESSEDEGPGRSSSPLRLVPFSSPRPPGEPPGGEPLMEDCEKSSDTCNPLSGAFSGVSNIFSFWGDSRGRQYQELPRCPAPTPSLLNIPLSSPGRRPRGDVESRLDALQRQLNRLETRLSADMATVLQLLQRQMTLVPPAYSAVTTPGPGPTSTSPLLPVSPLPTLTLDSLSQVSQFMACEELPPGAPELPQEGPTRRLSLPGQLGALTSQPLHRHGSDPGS
Protocol: as §1

Chemical stability = assay type: physicochemical; details: Table S5
Protocol: as §1

CYP3A4 = target: T2, CYP3A4 (Homo sapiens, UniProt P08684); assay: CYP3A4 inhibition assay (Vivid CYP3A4 assay); assay type: in vitro ADME
T2 construct: purchased Thermo Fisher Scientific
T2 sequence (P08684 whole entry): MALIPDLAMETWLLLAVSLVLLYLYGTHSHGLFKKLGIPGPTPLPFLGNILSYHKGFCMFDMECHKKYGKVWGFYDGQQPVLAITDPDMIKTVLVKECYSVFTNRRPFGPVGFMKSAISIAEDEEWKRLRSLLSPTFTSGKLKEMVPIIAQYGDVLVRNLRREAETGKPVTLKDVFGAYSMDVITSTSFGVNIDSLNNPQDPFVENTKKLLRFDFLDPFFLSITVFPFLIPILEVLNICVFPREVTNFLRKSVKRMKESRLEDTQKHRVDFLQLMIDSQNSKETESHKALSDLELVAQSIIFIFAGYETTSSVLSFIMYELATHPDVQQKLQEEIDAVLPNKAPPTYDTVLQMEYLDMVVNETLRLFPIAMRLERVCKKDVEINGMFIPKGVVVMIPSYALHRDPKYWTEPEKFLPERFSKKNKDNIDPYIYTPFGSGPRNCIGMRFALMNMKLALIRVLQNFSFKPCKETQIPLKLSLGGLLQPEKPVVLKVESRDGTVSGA
Protocol: as §1

hNGAL [2] = target: T3, hNGAL (Homo sapiens, UniProt P80188); assay: hNGAL-induced IL6 and Col I secretion in human cardiac fibroblasts (ELISA); assay type: cell-based; design: % inhibition versus hNGAL on IL-6 secretion: concentration or dose not given beside the values; details: for IL-6 secretion: hNGAL-treated human cardiac fibroblasts, mean ± SEM
T3 construct: purchased R&D Systems
T3 sequence (P80188 21-198): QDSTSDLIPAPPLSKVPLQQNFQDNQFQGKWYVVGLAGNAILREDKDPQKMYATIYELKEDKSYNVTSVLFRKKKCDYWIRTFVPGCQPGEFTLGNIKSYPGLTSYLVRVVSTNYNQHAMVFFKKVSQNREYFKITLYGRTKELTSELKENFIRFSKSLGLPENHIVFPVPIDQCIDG
Protocol: (§2) Primary human cardiac fibroblasts (HCF) were obtained from Promocell (Heidelberg, Germany) and maintained in Fibroblast Media 3 following manufacturer’s instructions (Promocell). Cells were used between passages 5 and 7. Cells were stimulated with recombinant hNGAL (500 ng/mL, R&D Systems) or with TGFβ (10 ng/mL, R&D Systems) for 24 h. To assess cell proliferation the MTT test was used following provider’s instructions (Roche). For protein analysis. Primary Mouse Kidney Fibroblasts (MKF) were isolated from Wild Type (WT) mice. Briefly, 8 weeks old mice were sacrificed by cervical dislocation and kidneys were cleaned and rinsed in cold DPBS (Dulbecco's Phosphate-Buffered Saline). The renal cortex was minced and incubated in Dulbecco’s modified eagle medium/Nutrient mixture F-12 (DMEM/F12, Sigma) containing 1 mg/mL collagenase A (Roche) during 25 min at 37 °C. The digestion was inactivated by adding culture medium (DMEM/F12 + 10% FBS) then the cell suspension was passed through a 100-μm cell strainer. After centrifugation, the pellet (containing MKF) was diluted with culture medium then plated in 75 cm^2 culture flask. After 24 h MKF were washed with DPBS before replacement of fresh culture medium. Thereafter, culture medium was changed every 48 h. Once 70–80% confluent, MKF were trypsinized and plated in 12 or 6-well plates. For experimental use, MKF were starved with culture medium containing only 3% FBS. MKF were treated with mNGAL (500 ng/mL, R&D Systems) or with TGFβ (10 ng/mL, R&D Systems) for 6 h for gene expression analysis.
IL6 and collagen type I concentrations were measured in cardiac tissue and cell supernatants by ELISA according to the manufacturer's instructions (R&D Systems).

hNGAL [3] = target: T3, hNGAL; assay: Cell proliferation (MTT) in hNGAL-treated human cardiac fibroblasts; assay type: cell-based
Protocol: as §2
Cell proliferation was assessed using the MTT Proliferation Assay (Sigma).

hNGAL [4] = target: T3, hNGAL; assay: hNGAL-induced intracellular profibrotic protein levels in human cardiac fibroblasts (Western blot); assay type: cell-based; design: % inhibition versus hNGAL on Col I protein level / % inhibition versus hNGAL on Col III protein level / % inhibition versus hNGAL on Fibronectin protein level / % inhibition versus hNGAL on Galectin 3 protein level: concentration or dose not given beside the values
Protocol: as §2
Total protein aliquots of 20 μg were prepared from cardiac homogenates and HCF and electrophoresed on SDS polyacrylamide gels and transferred to Hybond-c Extra nitrocellulose membranes (Amersham Biosciences). Membranes were incubated with primary antibodies for: Collagen I (Santa Cruz; dilution 1:500), Collagen type III (Santa Cruz; dilution 1:500), fibronectin (Millipore, 1:500), Galectin-3 (Thermo, 1:1000), α-SMA (Sigma, 1:1000), CTGF (Santa Cruz, 1:200), CD68 (Abcam, 1:500), CD80 (Santa Cruz, 1:500), CD86 (Santa Cruz, 1:500). […] After densitometric analyses, optical density values were expressed as arbitrary units. Results are expressed as an n-fold increase over the values of the control group in densitometric arbitrary units.

[5] = 10 µM, human cardiac fibroblasts, Fig. 1C
[6] = Table S4, second generation compounds and parents, Control 1.00, NGAL 1.45
[7] = Table S4, second generation compounds and parents, human cardiac fibroblasts
[8] = Table S2, human cardiac fibroblasts

Solubility in aqueous buffers, in words (Aqueous solubility): mild solubility problems
Solubility test (Aqueous solubility): 63%
Aquous solubility % (Aqueous solubility; Table S5): 63.46%
Plasma protein binding (PPB), in words (human plasma protein): within an acceptance range
hPPB% (human plasma protein; Table S5, human plasma protein binding): 89.11%
Chemical Stability % (Chemical stability): 92.2%
CYP3A4 enzyme activity inhibited in a competition assay (CYP3A4): 32%
CyP 3A4 Inhibition % (100= no inhibition) (CYP3A4; Table S5): 68.07 ± 1.52%
Increase in IL6 secretion induced by NGAL (hNGAL [2]; 1 µM, human cardiac fibroblasts, Fig. S3): did not prevent
NGAL-induced Col I secretion, in words (hNGAL [2]; [5]): fully inhibited
NGAL-induced IL6 secretion, in words (hNGAL [2]; [5]): fully inhibited
IL-6 secretion (hNGAL [2]; Table S1, first generation compounds, Control 1.0 ± 0.1, NGAL 2.21 ± 0.2): 0.99 ± 0.3
% inhibition versus hNGAL on IL-6 secretion (hNGAL [2]; Table S1, first generation compounds, human cardiac fibroblasts): 55.2%
IL-6 secretion (hNGAL [2]; [6]): 0.72 ± 0.02
% inhibition versus hNGAL on IL-6 secretion (hNGAL [2]; [7]): 50.4%
Inhibitor effect on hNGAL-induced IL6 secretion, in words (hNGAL [2]; human cardiac fibroblasts, text on Tables S1 and S4): important inhibitor effect
hNGAL-induced cell proliferation, in words (hNGAL [3]; 10 µM, Fig. 1E): blocked
hNGAL-induced expression of intracellular profibrotic proteins (Col I, Col III, fibronectin, Gal3), in words (hNGAL [4]; 10 µM, human cardiac fibroblasts, Fig. 1D): blocked
Col III synthesis (protein level) (hNGAL [4]; Table S2, hNGAL-treated human cardiac fibroblasts, Control 1.0, NGAL 1.67, mean ± SEM): 1.05 ± 0.1
Fibronectin synthesis (protein level) (hNGAL [4]; Table S2, hNGAL-treated human cardiac fibroblasts, Control 1.0, NGAL 1.8, mean ± SEM): 0.62 ± 0.1
Col I synthesis (protein level) (hNGAL [4]; Table S2, hNGAL-treated human cardiac fibroblasts, Control 1.0, NGAL 2.03, mean ± SEM): 1.27 ± 0.1
Galectin-3 synthesis (protein level) (hNGAL [4]; Table S2, hNGAL-treated human cardiac fibroblasts, Control 1.0, NGAL 2.1, mean ± SEM): 1.0 ± 0.2
% inhibition versus hNGAL on Col I protein level (hNGAL [4]; [8]): 37.5%
% inhibition versus hNGAL on Col III protein level (hNGAL [4]; [8]): 37.1%
% inhibition versus hNGAL on Fibronectin protein level (hNGAL [4]; [8]): 65.5%
% inhibition versus hNGAL on Galectin 3 protein level (hNGAL [4]; [8]): 52.3%
Structure (SMILES): CCS(=O)(=O)c1ccc2oc(SCc3cn4c(C)cc(C)nc4n3)nc2c1 [GPZ058225]
Hepatotoxicity (MTT) [1]: > 0.1 mM
Hepatotoxicity ([1]; Table S5, MTT): > 100 µM
Cardiotoxicity (hERG predictor assay), in words (hERG channel): did not block the hERG channel
Dose–response on proliferation induced by NGAL (hNGAL [3]; Fig. S2): able to block the proliferative effects of NGAL at 1 and 10 µM, but not at lower concentrations

IL-6 secretion (hNGAL [2]; [6]): 0.88± 0.04
% inhibition versus hNGAL on IL-6 secretion (hNGAL [2]; [7]): 39.3%
Structure (SMILES): N#Cc1cccc(S(=O)(=O)NCc2cccc(-n3cccn3)c2)c1 [GPZ778195]

IL-6 secretion (hNGAL [2]; [6]): 0.93± 0.03
% inhibition versus hNGAL on IL-6 secretion (hNGAL [2]; [7]): 35.9%
Structure (SMILES): CC(=O)c1cccc(S(=O)(=O)NCc2ccccc2-c2ccsc2)c1 [GPZ863205]

IL-6 secretion (hNGAL [2]; [6]): 0.64± 0.02
% inhibition versus hNGAL on IL-6 secretion (hNGAL [2]; [7]): 55.9%
Structure (SMILES): CC(=O)c1cccc(S(=O)(=O)NCc2ccccc2-c2ccc(CN(C)C)cc2)c1 [GPZ642292]

IL-6 secretion (hNGAL [2]; [6]): 0.93± 0.02
% inhibition versus hNGAL on IL-6 secretion (hNGAL [2]; [7]): 35.9%
Structure (SMILES): CCN1CCN(Cc2ccccc2CNS(=O)(=O)c2cccc(C(C)=O)c2)CC1 [GPZ913629]

IL-6 secretion (hNGAL [2]; [6]): 0.83± 0.02
% inhibition versus hNGAL on IL-6 secretion (hNGAL [2]; [7]): 42.8%
Structure (SMILES): CC(=O)c1cccc(S(=O)(=O)NCc2ccccc2Cn2cccn2)c1 [GPZ505884]

IL-6 secretion (hNGAL [2]; [6]): 0.69± 0.02
% inhibition versus hNGAL on IL-6 secretion (hNGAL [2]; [7]): 52.4%
Structure (SMILES): CC(=O)c1ccc(S(=O)(=O)Nc2ccccc2-n2cccn2)cc1 [GPZ478519]

IL-6 secretion (hNGAL [2]; [6]): 0.94 ± 0.03
% inhibition versus hNGAL on IL-6 secretion (hNGAL [2]; [7]): 35.2%
Structure (SMILES): Cc1cc(C)n2cc(CSc3nc4ccccc4[nH]3)nc2n1 [GPZ743042]

IL-6 secretion (hNGAL [2]; [6]): 0.86± 0.02
% inhibition versus hNGAL on IL-6 secretion (hNGAL [2]; [7]): 40.1%
Structure (SMILES): O=C(Nc1nc2cc(F)c(F)cc2s1)c1cn2cccnc2n1 [GPZ278618]
